These results are taken from patent US20170260134A1, “Ceramide Analogs” (Augusta University Research Institute, Inc., priority 2016, published 2017).

Entries after “also recorded” stand apart in the source; their conditions may differ.

For one series, the system named is CT26 cells. As to the kind of experiment: CT26 colon carcinoma lung metastasis in BALB/c mice. Format: in vivo. The conditions noted are these: 25 and 50 kg body weight, intraperitoneal, days 8, 10 and 12 after tumor injection. On the procedure: FIG. 8 is a bar graph of number of tumor nodules/lung in lungs taken from BALB/c mice injected with CT26 cells (2.5×10^5 cell per mouse). Tumor-bearing mice were treated with the indicated 5 ceramide analogs (25 and 50 […]) by intraperitoneal injection at days 8, 10 and 12 after tumor injection. CT26 cells (2.5×10^5 cell per mouse) were injected to BALB/c mice on […]. Tumor-bearing mice were treated with the 5 ceramide analogs (25 and 50 […]) by intraperitoneal injection at days 8, 10 and 12 after tumor injection. […]. Mouse lungs were inflated with ink and fixed. […] White dots are tumor nodules. Bottom panel: quantification of tumor nodule number in the lungs.

The test system of series [1] is SW480, RKO and HCT116 cells. The experiment in a line: Tumor cell apoptosis assay: ceramide analog at sublethal dose plus FasL (Annexin V/PI). In kind it is cell-based, human. The conditions noted are these: for increase of cell sensitivity to FasL-induced apoptosis: sublethal dose of analog (10 μM) plus FasL (10 ng/ml SW480, HCT; 100 ng/ml RKO); for activity in human colon carcinoma: summary statement. On the procedure: FIG. 5A is a bar graph of Percent Apoptotic cell death of SW480 cells treated with the indicated ceramide analogs (10 μM), with (10 ng/ml) or without FasL and treated with FasL alone. FIG. 5B is a bar graph of Percent Apoptotic cell death of RKO cells treated with the indicated ceramide analogs (10 μM), with (100 ng/ml) or without FasL and treated with FasL alone. FIG. 5C is a bar graph of Percent Apoptotic cell death of HCT cells treated with the indicated ceramide analogs (10 μM), with (10 ng/ml) or without FasL and treated with FasL alone. % apoptotic cell death was calculated as % Annexin V^+PI^+ cells in the presence of ceramide analogs plus MegaFasL−% Annexin V^+PI^+ cells in the control group. Column: mean; Bar: SD.
Tumor cells were cultured in the presence of MegaFasL at the indicated concentrations as previously described Hu, X. et al. Deregulation of apoptotic factors Bcl-xL and Bax confers apoptotic resistance to myeloid-derived suppressor cells and contributes to their persistence in cancer. J Biol Chem 288, 19103-19115, doi:10.1074/jbc.M112.434530M112.434530 [pii] (2013). FasL (Mega-Fas Ligand®, kindly provided by Drs. Steven Butcher and Lars Damstrup at Topotarget A/S, Denmark) is a recombinant fusion protein that consists of three human FasL extracellular domains linked to a protein backbone comprising the dimmer-forming collagen domain of human adiponectin. The Mega-Fas Ligand was produced as a glycoprotein in mammalian cells using Good Manufacturing Practice compliant process in Topotarget A/S (Copenhagen, Denmark). For tumor cell apoptosis analysis, cells were stained with Alexa Fluor 647 Annexin V (Biolegend) in Annjixin V-binding buffer (10 mM Hepes, pH 7.4, 140 mM NaCl, 2.5 mM CaCl2) for 30 min at 4° C. Propidium Iodide was then added to the cell suspension, and cells were analyzed by flow cytometry as previously described Bardhan, K. et al. IFNgamma induces DNA methylation-silenced GPR109A expression via pSTAT1/p300 and H3K18 acetylation in colon cancer. Cancer Immunol Res, doi:canimm.0164.2014 [pii]2326-6066.CIR-14-0164 [pii] 10.1158/2326-6066.CIR-14-0164 (2015).
Next, the efficacy of the ceramide analogs was tested at their sublethal doses in enhancement of FasL-induced apoptosis using SW480, RKO and HCT116 cells. Tumor cells were treated with a sublethal dose of each of these 20 ceramide analogs along or ceramide analog plus FasL, and analyzed for apoptosis. […] Therefore, six novel ceramide analogs were identified that can effectively enhance the efficacy of FasL-induced apoptosis in human colon carcinoma cells.

The subject of the next series is CT26 tumor cells. As to the kind of experiment: CTL cytotoxicity assay with perforin-deficient CTLs (pfpCTL). The conditions noted are these: analog alone at the dose used. Format: cell-based. On the procedure:
FIG. 7A is a line graph of percent tumor cell lysis verus pfpCTLs E/T ratio. Cells were gated for CFSE^+ tumor cells. The gated cells were then analyzed for PI^+ cells. % tumor cell lysis was calculated as % CFSE^+PI^+ cells in the presence of CTLs−% CFSE^+PI^+ cells in the absence of CTLs. FIG. 7B is a bar graph of percent tumor cell lysis Cells were gated for CFSE^+ tumor cells. The gated cells were then analyzed for PI^+ cells. % tumor cell lysis was calculated as % CFSE^+PI^+ cells in the presence of ceramide analogs or ceramide analogs plus pfpCTLs−% CFSE^+PI^+ cells in the absence of ceramide analogs or ceramide analogs plus pfpCTLs. Column: mean; Bar: SD. Bolded ** indicated p<0.01 between ceramide analog+pfpCTLs group and pfpCTLs only group, and green ** indicates p<0.01 between ceramide analog+pfpCTLs group and ceramide analog only group. Column: mean; Bar: SD.
Perforin-deficient CTLs were generated and maintained by weekly stimulation with AH1 peptide as previously described Liu, K., Caldwell, S. A., Greeneltch, K. M., Yang, D. & Abrams, S. I. CTL Adoptive Immunotherapy Concurrently Mediates Tumor Regression and Tumor Escape. J Immunol 176, 3374-3382 (2006). […] Cells were analyzed immediately by flow cytometry. CFSE^+ tumor cells were gated and analyzed for PI^+ cells. […]

A further series relates to SW480 cells. The experiment in a line: Cell viability (MTT) assay, cytotoxicity of ceramide analogs. Format: cell-based, human. The conditions noted are these: three days, at the doses tested. On the procedure: FIG. 4 is a bar graph of Percent Cell Viability (MTT assay) showing. cytotoxicity of the indicated ceramide analogs to human colon carcinoma cells. Human colon carcinoma SW480 cells were cultured in the presence of ceramide analogs at the indicated concentrations for three days. Cell viability was determined by MTT assays. % cell viability of control was set at 100% and cell viability of treatment groups was calculated as % of the control groups. IC50 was calculated using GraphPad Prism program.
Cells were seeded in 96-well plates at 2×10^3 cells/well in 100 μl culture medium for 3 days. Cell viability assays were performed using the MTT cell proliferation assay kit (ATCC, Manassas, Va.) according to the manufacturer's instructions.
The structures and functions of ceramide analogs Cheng, J. C. et al. Radiation-induced acid ceramidase confers prostate cancer resistance and tumor relapse. J Clin Invest 123, 4344-4358, doi:10.1172/JCI6479164791 [pii] (2013); and Paschall, A. V. et al. Ceramide targets xIAP and cIAP1 to sensitize metastatic colon and breast cancer cells to apoptosis induction to suppress tumor progression. BMC Cancer 14, 24, doi:10.1186/1471-2407-14-241471-2407-14-24 [pii] (2014) were analyzed and synthesized twenty ceramide analogs to be developed into Fas sensitizers (Supplemental Table 1). […]

With `CCCCCCCCCCCCCNC(=O)[C@@H](NC(=O)c1cc2c(F)cccc2[nH]1)[C@@H](C)O` [IG4], in the series with CT26 cells, the “established colon carcinoma lung metastasis (tumor nodules/lung)” value is recorded as “suppress”. Moreover, in series [1], the “increase of cell sensitivity to FasL-induced apoptosis” value (“increase of cell sensitivity” for short) was “effectively increase; also recorded: significant efficacy” and the “activity in human colon carcinoma” value was “potent activity”.
In the case of `CCCCCCCC/C=C\CCCCCCCC(=O)N[C@H](CO)[C@@H](O)c1ccc([N+](=O)[O-])cc1` [IG17, N-((1S,2R)-1,3-dihydroxy-1-(4-nitrophenyl)propan-2-yl)oleamide], in the series with CT26 cells, the “established colon carcinoma lung metastasis (tumor nodules/lung)” value is given as “suppress”. In series [1], the “increase of cell sensitivity” value is reported as “effectively increase; also recorded: significant efficacy” and the “activity in human colon carcinoma” value is given as “potent activity”.
Consider `CCCCCCCCCCCCN(C)C(=O)[C@@H](NC(=O)c1cc2cc(C)ccc2[nH]1)[C@@H](C)O` [IG9], for which the “activity in human colon carcinoma” value in series [1] is given as “potent activity”.
`CCCCCCCCCCCCCNC(=O)[C@@H](NC(=O)c1cc2cc(OC)ccc2[nH]1)[C@@H](C)O` [IG7]: the “established colon carcinoma lung metastasis (tumor nodules/lung)” value in the series with CT26 cells was “suppress”. In series [1], the “increase of cell sensitivity” value is “effectively increase; also recorded: significant efficacy” and the “activity in human colon carcinoma” value was “potent activity”.
As for `CCCCCCCCCCCCN(C)C(=O)[C@@H](NC(=O)c1cc2cc(F)ccc2[nH]1)[C@@H](C)O` [IG14], in series [1], the “increase of cell sensitivity” value was “effectively increase; also recorded: significant efficacy” and the “activity in human colon carcinoma” value is “potent activity”.
In the case of `CCCCCCCCCCCCCNC(=O)[C@@H](NC(=O)c1cc2c(OC)cccc2[nH]1)[C@@H](C)O` [IG8], the “cytotoxicity to CT26 tumor cells” value with CT26 tumor cells is “high cytotoxicity”. Also, in series [1], the “increase of cell sensitivity” value is reported as “effectively increase; also recorded: significant efficacy” and the “activity in human colon carcinoma” value was “potent activity”.
Take `CCCCCCCCCCCCN(C)C(=O)[C@@H](NC(=O)c1cc2c(F)cccc2[nH]1)[C@@H](C)O` [IG19]: the “established colon carcinoma lung metastasis (tumor nodules/lung)” value with CT26 cells is listed as “suppress”. The “increase of cell sensitivity” value in series [1] is “effectively increase; also recorded: significant efficacy”.
On to `CCCC/C=C/CCCCCCCC(=O)N[C@H](CO)[C@@H](O)c1ccc([N+](=O)[O-])cc1` [IG20, (E)-N-((1S,2R)-1,3-dihydroxy-1-(4-nitrophenyl)propan-2-yl)tetradec-9-enamide], for which, in the series with SW480 cells, the cytotoxicity result is given as “no cytotoxicity”.
Still for that read-out and setting: as for `CCCCCCCCCCCCN(C)C(=O)[C@@H](NC(=O)c1cc2cc(Br)ccc2[nH]1)[C@@H](C)O` [IG10], the entry is “no cytotoxicity”.
